From patent US20190014806A1, “Composition to Reduce the Negative Effects of Alcohol Consumption” (priority 2017, published 2019)

Tested on: drosophila
Test: alcohol sedation model: recovery of drosophila after acute alcohol exposure
Format: in vivo
Conditions: FIG. 1; acute alcohol exposure over time; agents in fly food at least two days before exposure
Method: This invention used a modified version of the alcohol sedation model disclosed by Sandhu et al to evaluate the effects of acute alcohol exposure in drosophila. For example, in one of the models, for at least two days prior to alcohol exposure, drosophila consumed standard fly food combined with placebo or investigational agents. The drosophila were then moved to empty, foam stopper-covered vials and allowed to acclimate before the foam stoppers were injected with 1 ml 100% ethanol. At different time intervals, it was noted how many drosophila in each vial lost consciousness. […] The average recovery score was calculated by averaging the recovery scores of individual drosophila. Increasing the extent of alcohol exposure led to greater alcohol toxicity, including substantial death. In the following examples, a modified version of the alcohol sedation model employed by Sandhu et al. (“An Inexpensive, Scalable Behavioral Assay for Measuring Ethanol Sedation Sensitivity and Rapid Tolerance in Drosophila,” J Vis Exp. Author manuscript; available in PMC 2016 Apr. 15) to evaluate the effects of acute alcohol exposure was used. For at least two days prior to alcohol exposure, flies consumed standard fly food combined with placebo or investigational agents. […] The average recovery score is calculated by averaging the recovery scores of individual flies. […]

NCCS(=O)(=O)O [taurine]
recovery from consumption of alcohol in comparison with no taurine added (placebo): accelerates recovery from consumption of alcohol
